From patent publication US6495591B1, “Fungal efflux pump inhibitors” (Essential Therapeutics, Inc., priority 1997, dated 2002)
Read-outs that look alike come from different tables or passages of the source.

Tests used:
[1] = tested on: YEM 51 C. glabrata wt; assay: FEPI MIC with/without 1/8 fluconazole MIC at 24 hrs (Table 11); format: cell-based
[2] = tested on: C. albicans YEM-15 (CDR1 & CDR2 overexpressor); format: cell-based
[3] = tested on: YEM 13 C. albicans BEN up; assay: microbe, parasite or virus in culture; format: cell-based; details: YEM 13, 24 hrs, 80% inhibition; for MIC of compound in the presence of fluconazole (+): 1/8 × MIC of fluconazole
[4] = tested on: Aspergillus fumigatus; assay: FEPI MICs in combination with 1/4 the azole's MIC (Table 12); format: cell-based; set-up: FEPI MIC (alone): unit not given here; details: for FEPI MIC with itraconazole, 60% Inh / FEPI MIC with itraconazole, 80% Inh: itraconazole 0.063 μg/ml (1/4 MIC); for FEPI MIC with ketoconazole, 60% Inh / FEPI MIC with ketoconazole, 80% Inh: ketoconazole 4 μg/ml (1/4 MIC); for FEPI MIC (alone): no azole, 35° C., CM Broth
Description: The combinations were tested against a series of Candida strain with known expression of efflux pumps or with complete deletion of all known pumps and Aspergillus fumigatus. Results are reported as minimum inhibitory concentration (MIC) of […] in the presence or absence of […]. A total of 27 distinct milbemycins were studied.

[5] = tested on: YEM 27 C. albicans ΔCDR1ΔCDR2 ΔBENΔFLU1; assay: microbe, parasite or virus in culture; format: cell-based; details: YEM 27, 24 hrs, 80% inhibition; for MIC of compound in the presence of fluconazole (+): 1/8 × MIC of fluconazole
[6] = tested on: C. krusei YEM-52 (ATCC 90878), wild type; assay: Minimal concentration to reduce fluconazole MIC sixteen-fold (Table 7); format: cell-based; details: YEM-52, wild type
[7] = tested on: YEM 24 C. albicans ΔCDR1, ΔCDR2; assay: microbe, parasite or virus in culture; format: cell-based; details: YEM 24, 24 hrs, 80% inhibition; for MIC of compound in the presence of fluconazole (+): 1/8 × MIC of fluconazole
[8] = biological target: pCgCDR (ABC) efflux pump in S. cerevisiae YEM-39 (Candida glabrata, UniProt Q6FK23); assay: cell-based; format: cell-based, C. glabrata; details: YEM-39 pCgCDR, fluconazole fixed at FLUhalf 4
[9] = biological target: pCDRI (ABC) efflux pump in S. cerevisiae YEM-1 (Candida albicans, UniProt P43071); assay: cell-based; format: cell-based, C. albicans; details: YEM-1 pCDRI, fluconazole fixed at FLUhalf 5.6
[10] = biological target: pFLU (MF) efflux pump in S. cerevisiae YEM-38 (Candida albicans, UniProt G1UB37); assay: cell-based; format: cell-based, C. albicans; details: YEM-38 pFLU, fluconazole fixed at FLUhalf 2
[11] = tested on: YEM 15 C. albicans, CDR1CDR2 up; assay: microbe, parasite or virus in culture; format: cell-based; details: YEM 15, 24 hrs, 80% inhibition; for MIC of compound in the presence of fluconazole (+): 1/8 × MIC of fluconazole
[12] = biological target: pBEN (MF) efflux pump in S. cerevisiae YEM-2 (Candida albicans, UniProt P28873); assay: cell-based; format: cell-based, C. albicans; details: YEM-2 pBEN, fluconazole fixed at FLUhalf 5.6
[13] = tested on: YEM 17 C. glabrata, CgCDR up; format: cell-based; details: 24 hrs, 80% inhibition; for MIC of compound in the presence of fluconazole (+): 1/8 × MIC of fluconazole
[14] = tested on: YEM 30 C. albicans wt; assay: FEPI MIC with/without 1/8 fluconazole MIC at 24 hrs (Table 11); format: cell-based
[15] = tested on: C. albicans YEM-13 (BEN); format: cell-based
[16] = tested on: YEM 53 C. krusei; assay: FEPI MIC with/without 1/8 fluconazole MIC at 24 hrs (Table 11); format: cell-based
[17] = tested on: C. glabrata YEM-19 (CgCDR overexpressor); format: cell-based
[18] = tested on: C. krusei YEM-52 (ATCC 90878), wild type; assay: Broth dilution MIC, fluconazole with/without milbemycin oxime (Table 6); format: cell-based; details: YEM-52; milbemycin oxime 2.5 μg/ml
[19] = biological target: pCDR2 (ABC) efflux pump in S. cerevisiae YEM-37 (Candida albicans, UniProt P78595); assay: cell-based; format: cell-based, C. albicans; details: YEM-37 pCDR2, fluconazole fixed at FLUhalf 1
[20] = tested on: pCgBEN (MF) efflux pump in S. cerevisiae YEM-40; format: cell-based, C. glabrata
[21] = tested on: P388 cell line (mouse leukemia), adriamycin sensitive; assay: Adriamycin cytotoxicity (MTT), P-glycoprotein assay
Description: (§1) The inhibitory effect of milbemycin β1 against the mammalian P-glycoprotein multi-drug resistant pump was determined following the procedure described by Tsuruo et al (Cancer Res., 1981. 41:1967-1972) with slight modification. The cytotoxicity of antitumor agent, adriamycin, against adriamycin sensitive P388 cell line (mouse leukemia) and its adriamycin resistant subline line (P388/ADM) was measured in the presence of various concentrations of milbemycin β1. […] The assay is performed in serum-free media containing 20 μM of 2-mercaptoethanol. Chemosensitivity to adriamycin was determined […] based on the reduction of MTT (3-[4,5-dimethylthiazol-2-yl]-2,5-diphenyltetrazolium bromide) into blue formazan.

[22] = tested on: P388/ADM, adriamycin resistant subline; assay: as above
Description: as §1

[23] = tested on: mammalian P-glycoprotein multi-drug resistant pump; format: cell-based, mouse; details: no inhibitor (None)
Description: as §1

[24] = read-out: FEPIhalf (concentration needed to reduce activity of efflux pump by 50%)

Sequence of pFLU (MF) efflux pump in S. cerevisiae YEM-38 (G1UB37 whole entry): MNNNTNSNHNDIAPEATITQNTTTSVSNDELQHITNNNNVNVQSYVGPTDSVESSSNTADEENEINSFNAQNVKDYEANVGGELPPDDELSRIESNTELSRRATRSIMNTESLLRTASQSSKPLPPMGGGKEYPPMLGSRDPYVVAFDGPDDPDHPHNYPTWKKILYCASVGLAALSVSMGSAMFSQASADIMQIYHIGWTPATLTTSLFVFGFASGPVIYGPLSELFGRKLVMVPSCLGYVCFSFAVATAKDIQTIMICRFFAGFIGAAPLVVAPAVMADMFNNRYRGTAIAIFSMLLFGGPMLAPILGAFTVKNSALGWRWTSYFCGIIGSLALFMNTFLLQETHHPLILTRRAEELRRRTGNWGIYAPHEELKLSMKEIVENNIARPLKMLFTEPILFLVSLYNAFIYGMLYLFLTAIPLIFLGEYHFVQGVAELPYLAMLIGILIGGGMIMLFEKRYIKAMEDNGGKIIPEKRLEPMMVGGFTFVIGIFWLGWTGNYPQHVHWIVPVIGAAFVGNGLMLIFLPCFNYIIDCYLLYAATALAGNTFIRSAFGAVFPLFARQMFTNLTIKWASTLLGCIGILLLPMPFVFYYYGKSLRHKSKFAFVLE
Sequence of pCDRI (ABC) efflux pump in S. cerevisiae YEM-1 (P43071 whole entry): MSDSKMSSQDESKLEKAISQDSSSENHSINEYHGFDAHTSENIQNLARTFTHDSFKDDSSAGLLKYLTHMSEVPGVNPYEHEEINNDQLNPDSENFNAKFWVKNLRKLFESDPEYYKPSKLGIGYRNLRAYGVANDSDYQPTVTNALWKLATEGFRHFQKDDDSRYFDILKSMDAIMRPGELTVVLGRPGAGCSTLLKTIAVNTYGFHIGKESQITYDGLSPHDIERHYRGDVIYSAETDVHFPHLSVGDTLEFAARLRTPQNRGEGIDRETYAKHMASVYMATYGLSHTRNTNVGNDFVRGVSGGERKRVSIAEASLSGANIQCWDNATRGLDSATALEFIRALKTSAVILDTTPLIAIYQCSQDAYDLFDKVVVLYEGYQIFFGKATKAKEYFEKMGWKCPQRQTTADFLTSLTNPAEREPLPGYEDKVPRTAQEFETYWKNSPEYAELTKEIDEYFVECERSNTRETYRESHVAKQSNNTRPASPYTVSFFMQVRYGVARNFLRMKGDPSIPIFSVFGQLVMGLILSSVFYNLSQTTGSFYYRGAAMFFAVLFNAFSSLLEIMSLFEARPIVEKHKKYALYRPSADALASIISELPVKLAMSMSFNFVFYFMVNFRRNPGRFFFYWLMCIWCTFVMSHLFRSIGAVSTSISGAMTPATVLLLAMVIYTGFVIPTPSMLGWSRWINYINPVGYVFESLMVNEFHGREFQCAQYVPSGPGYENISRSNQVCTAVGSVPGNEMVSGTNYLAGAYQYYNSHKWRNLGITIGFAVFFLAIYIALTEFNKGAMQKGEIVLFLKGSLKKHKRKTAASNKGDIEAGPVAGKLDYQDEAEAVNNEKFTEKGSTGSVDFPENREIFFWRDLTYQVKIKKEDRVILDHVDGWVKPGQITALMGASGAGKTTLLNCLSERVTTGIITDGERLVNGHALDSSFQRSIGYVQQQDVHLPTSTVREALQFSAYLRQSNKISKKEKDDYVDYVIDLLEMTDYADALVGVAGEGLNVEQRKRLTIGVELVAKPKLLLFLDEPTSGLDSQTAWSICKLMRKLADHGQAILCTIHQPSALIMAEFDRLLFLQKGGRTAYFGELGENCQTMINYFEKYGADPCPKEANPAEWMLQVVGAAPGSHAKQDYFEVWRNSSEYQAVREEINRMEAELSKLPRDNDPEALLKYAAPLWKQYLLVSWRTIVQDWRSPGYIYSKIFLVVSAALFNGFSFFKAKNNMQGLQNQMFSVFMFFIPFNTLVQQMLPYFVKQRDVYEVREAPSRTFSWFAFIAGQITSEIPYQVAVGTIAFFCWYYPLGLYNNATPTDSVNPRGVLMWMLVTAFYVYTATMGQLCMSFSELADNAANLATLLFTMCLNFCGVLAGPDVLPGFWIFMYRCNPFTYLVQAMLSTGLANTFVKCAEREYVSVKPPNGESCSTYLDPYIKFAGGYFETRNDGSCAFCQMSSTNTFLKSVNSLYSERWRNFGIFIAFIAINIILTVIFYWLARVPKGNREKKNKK
Sequence of pCgCDR (ABC) efflux pump in S. cerevisiae YEM-39 (Q6FK23 whole entry): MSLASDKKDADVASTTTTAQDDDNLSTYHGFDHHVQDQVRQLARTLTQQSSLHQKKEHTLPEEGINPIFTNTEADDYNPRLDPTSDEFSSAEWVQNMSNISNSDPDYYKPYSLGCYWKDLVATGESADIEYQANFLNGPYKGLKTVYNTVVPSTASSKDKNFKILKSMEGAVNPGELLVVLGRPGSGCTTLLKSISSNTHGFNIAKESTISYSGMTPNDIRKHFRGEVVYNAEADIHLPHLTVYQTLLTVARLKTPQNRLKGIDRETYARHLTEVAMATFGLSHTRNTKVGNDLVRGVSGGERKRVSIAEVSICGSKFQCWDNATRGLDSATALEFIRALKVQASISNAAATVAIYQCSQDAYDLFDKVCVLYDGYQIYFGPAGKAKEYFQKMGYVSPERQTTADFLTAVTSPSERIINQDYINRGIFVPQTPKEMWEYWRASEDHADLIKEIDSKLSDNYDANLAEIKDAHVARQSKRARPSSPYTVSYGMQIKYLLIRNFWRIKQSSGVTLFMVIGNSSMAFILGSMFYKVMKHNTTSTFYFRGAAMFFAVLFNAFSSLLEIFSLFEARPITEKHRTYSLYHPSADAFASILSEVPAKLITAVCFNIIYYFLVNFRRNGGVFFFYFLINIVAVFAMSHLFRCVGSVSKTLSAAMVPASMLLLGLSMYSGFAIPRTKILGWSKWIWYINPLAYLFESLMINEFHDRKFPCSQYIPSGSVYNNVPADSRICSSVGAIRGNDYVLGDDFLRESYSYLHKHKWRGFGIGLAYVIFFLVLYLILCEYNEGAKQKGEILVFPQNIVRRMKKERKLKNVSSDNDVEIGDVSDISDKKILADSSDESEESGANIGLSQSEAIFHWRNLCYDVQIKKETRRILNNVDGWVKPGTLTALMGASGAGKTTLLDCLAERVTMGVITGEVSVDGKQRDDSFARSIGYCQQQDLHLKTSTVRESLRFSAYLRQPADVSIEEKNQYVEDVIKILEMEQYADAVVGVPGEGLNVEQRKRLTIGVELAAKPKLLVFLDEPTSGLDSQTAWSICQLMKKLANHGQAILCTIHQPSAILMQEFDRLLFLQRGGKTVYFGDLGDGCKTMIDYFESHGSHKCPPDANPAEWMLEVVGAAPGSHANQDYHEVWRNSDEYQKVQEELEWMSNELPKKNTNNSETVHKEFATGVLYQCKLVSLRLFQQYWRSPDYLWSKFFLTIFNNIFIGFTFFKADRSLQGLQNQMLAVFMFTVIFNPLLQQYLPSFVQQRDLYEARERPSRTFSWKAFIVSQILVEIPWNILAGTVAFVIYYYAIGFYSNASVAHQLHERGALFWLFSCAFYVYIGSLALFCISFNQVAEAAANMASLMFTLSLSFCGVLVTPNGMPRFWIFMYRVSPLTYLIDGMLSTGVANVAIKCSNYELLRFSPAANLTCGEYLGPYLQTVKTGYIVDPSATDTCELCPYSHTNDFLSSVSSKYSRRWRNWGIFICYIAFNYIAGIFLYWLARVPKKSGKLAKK
Sequence of pCDR2 (ABC) efflux pump in S. cerevisiae YEM-37 (P78595 whole entry): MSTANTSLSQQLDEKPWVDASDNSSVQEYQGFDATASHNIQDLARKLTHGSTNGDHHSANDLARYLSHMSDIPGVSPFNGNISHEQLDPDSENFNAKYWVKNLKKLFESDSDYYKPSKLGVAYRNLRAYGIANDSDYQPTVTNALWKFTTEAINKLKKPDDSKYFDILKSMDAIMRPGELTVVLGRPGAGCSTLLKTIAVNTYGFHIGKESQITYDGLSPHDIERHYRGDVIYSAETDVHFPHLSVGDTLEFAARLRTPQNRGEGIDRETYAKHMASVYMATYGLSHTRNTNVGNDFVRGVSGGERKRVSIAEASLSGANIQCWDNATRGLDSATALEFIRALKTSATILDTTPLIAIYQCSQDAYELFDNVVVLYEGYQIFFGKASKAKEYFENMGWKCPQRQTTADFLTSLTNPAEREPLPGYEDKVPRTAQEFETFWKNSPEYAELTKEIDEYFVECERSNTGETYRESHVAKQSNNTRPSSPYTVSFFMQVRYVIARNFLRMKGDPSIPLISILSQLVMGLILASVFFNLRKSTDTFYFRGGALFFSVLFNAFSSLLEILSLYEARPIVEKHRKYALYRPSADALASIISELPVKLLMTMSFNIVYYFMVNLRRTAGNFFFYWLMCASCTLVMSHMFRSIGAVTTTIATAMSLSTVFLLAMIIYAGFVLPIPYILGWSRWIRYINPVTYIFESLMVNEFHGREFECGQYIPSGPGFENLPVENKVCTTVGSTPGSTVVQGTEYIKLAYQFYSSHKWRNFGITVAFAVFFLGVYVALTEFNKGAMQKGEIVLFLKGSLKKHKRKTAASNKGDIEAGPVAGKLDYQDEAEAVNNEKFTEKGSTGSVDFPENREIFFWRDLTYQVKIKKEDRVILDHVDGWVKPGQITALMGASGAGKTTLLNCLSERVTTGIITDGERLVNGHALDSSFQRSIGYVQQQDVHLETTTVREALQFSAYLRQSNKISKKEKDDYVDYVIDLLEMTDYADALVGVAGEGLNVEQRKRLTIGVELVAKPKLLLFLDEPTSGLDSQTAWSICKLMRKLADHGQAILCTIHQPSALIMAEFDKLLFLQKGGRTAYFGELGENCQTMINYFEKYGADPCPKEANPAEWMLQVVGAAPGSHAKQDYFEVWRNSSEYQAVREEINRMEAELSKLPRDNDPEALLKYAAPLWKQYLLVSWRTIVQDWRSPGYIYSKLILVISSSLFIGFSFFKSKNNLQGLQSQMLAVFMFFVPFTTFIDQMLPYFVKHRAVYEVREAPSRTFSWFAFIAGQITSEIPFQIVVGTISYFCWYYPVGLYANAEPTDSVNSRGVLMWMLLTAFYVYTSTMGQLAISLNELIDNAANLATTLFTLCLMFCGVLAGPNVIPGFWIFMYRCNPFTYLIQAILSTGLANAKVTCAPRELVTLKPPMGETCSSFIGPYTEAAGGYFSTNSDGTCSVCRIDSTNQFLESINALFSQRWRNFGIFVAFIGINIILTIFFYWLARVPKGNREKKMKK

Row | Compound | MIC of compound in the absence of fluconazole (−) ([1]; YEM 51, 24 hrs, 80% inhibition) [µg/mL] | MIC of compound in the presence of fluconazole (+) [3] [µg/mL] | MIC of compound in the absence of fluconazole (−) [3] [µg/mL] | FEPI MIC with itraconazole, 60% Inh ([4]; 60% inhibition) | FEPI MIC with itraconazole, 80% Inh ([4]; 80% inhibition) | FEPI MIC with ketoconazole, 60% Inh ([4]; 60% inhibition) | FEPI MIC with ketoconazole, 80% Inh ([4]; 80% inhibition) | FEPI MIC (alone) ([4]; 80% inhibition) | MIC of compound in the presence of fluconazole (+) [5] [µg/mL] | MIC of compound in the absence of fluconazole (−) [5] [µg/mL] | MIC of compound in the presence of fluconazole (+) [7] [µg/mL] | MIC of compound in the absence of fluconazole (−) [7] [µg/mL] | MIC of compound in the presence of fluconazole (+) [11] | MIC of compound in the absence of fluconazole (−) [11] [µg/mL] | MIC of compound in the presence of fluconazole (+) [13] [µg/mL] | MIC of compound in the absence of fluconazole (−) [13] [µg/mL] | MIC of compound in the absence of fluconazole (−) ([14]; YEM 30, 24 hrs, 80% inhibition) [µg/mL] | MIC of compound in the absence of fluconazole (−) ([16]; YEM 53, 24 hrs, 80% inhibition) [µg/mL] | also measured
1 | Milbemycin oxime [Compound 2] | > 64 | > 64 | > 64 | >64 | >64 | 0.5 | 0.5 | >64 | 64 | > 64 | > 64 | > 64 | ≦0.03 | > 64 | 4 | > 64 | > 64 | > 64 | MIC of compound in the presence of fluconazole (+) ([1]; YEM 51, 1/8 × MIC of fluconazole, 24 hrs, 80% inhibition): 16 µg/mL; Minimal concentration required to reduce the MIC of fluconazole by sixteen-fold [2]: <0.07 µg/mL; FEPI MIC with fluconazole, 60% Inh ([4]; fluconazole 32 μg/ml (1/4 MIC), 60% inhibition): 2; FEPI MIC with fluconazole, 80% Inh ([4]; fluconazole 32 μg/ml (1/4 MIC), 80% inhibition): >64; Minimal concentration required to reduce the MIC of fluconazole by sixteen-fold [6]: 1.25 µg/mL; FEPIhalf (concentration needed to reduce activity of efflux pump by 50%) [8]: 64; FEPIhalf (concentration needed to reduce activity of efflux pump by 50%) [9]: <0.06; FEPIhalf (concentration needed to reduce activity of efflux pump by 50%) [10]: >64; FEPIhalf (concentration needed to reduce activity of efflux pump by 50%) [12]: >64; MIC of compound in the presence of fluconazole (+) ([14]; YEM 30, 1/8 × MIC of fluconazole, 24 hrs, 80% inhibition): ≦0.03; Minimal concentration required to reduce the MIC of fluconazole by sixteen-fold [15]: 80 µg/mL; MIC of compound in the presence of fluconazole (+) ([16]; YEM 53, 1/8 × MIC of fluconazole, 24 hrs, 80% inhibition): 2 µg/mL; Minimal concentration required to reduce the MIC of fluconazole by sixteen-fold [17]: >80 µg/mL; MIC of fluconazole, Flu + McOxm (2.5 μg/ml) [18]: 2 µg/mL; FEPIhalf (concentration needed to reduce activity of efflux pump by 50%) [19]: 0.125; FEPIhalf (concentration needed to reduce activity of efflux pump by 50%) [20]: >64
2 | COc1cccc2c1C(=O)c1c(O)c3c(c(O)c1C2=O)C[C@@](O)(C(=O)CO)C[C@@H]3O[C@H]1C[C@H](N)[C@H](O)[C@H](C)O1 [Adriamycin, adriamycin, reference compound] | – | – | – | – | – | – | – | – | – | – | – | – | – | – | – | – | – | – | Adriamycin TC50, P388 [21]: 0.009 µg/mL; Adriamycin TC50, P388/ADM [22]: 2.954 µg/mL; Ratio [P388/A]/[P388] [23]: 337
3 | CCCCC(C)C(=O)OC1[C@@H](O)[C@]2(C[C@@H]3C[C@@H](C/C=C(\C)C[C@@H](C)/C=C/C=C4\CO[C@@H]5[C@H](OC)C(C)=CC(C(=O)O3)[C@]45O)O2)O[C@H](C)[C@H]1C (stereo partly drawn) [Compound 9, Milbemycin α6] | > 64 | > 64 | > 64 | 1 | >64 | ≦0.063 | ≦0.063 | >64 | > 64 | > 64 | > 64 | > 64 | 0.125 µg/mL | > 64 | 0.5 | > 64 | > 64 | > 64 | MIC of compound in the presence of fluconazole (+) [1]: 1 µg/mL; FEPI MIC with fluconazole, 60% Inh [4]: 64; FEPI MIC with fluconazole, 80% Inh [4]: >64; IC50 [8, 24]: 1460 nM; IC50 [9, 24]: 2910 nM; IC50 [10, 24]: > 93200 nM; IC50 [12, 24]: > 93200 nM; MIC of compound in the presence of fluconazole (+) [14]: ≦0.03; MIC of compound in the presence of fluconazole (+) [16]: > 64 µg/mL; IC50 [19, 24]: > 93200 nM; FEPIhalf (concentration needed to reduce activity of efflux pump by 50%) ([20]; YEM-40 pCgBEN, fluconazole fixed at FLUhalf 2.8): >64
